The Kd is the concentration at which binding is half-saturated.

Data on 5 molecules can be found in patent US9029328B2, “Methods for cardioprotection and cardioregeneration with dimers of EGF family ligands” (The Brigham and Women's Hospital, Inc., priority 2010, dated 2015).

The test system of series [1] is ErbB2 and ErbB3 receptors in H3255 cells. The series can be described thus: Western blot of pHER2 and pHER3 in H3255 cell lysates. Type of series: cell-based. The text has this: FIG. 9. Western blot analysis of pHER2 and pHER3 in lysates from H3255 cells stimulated by monovalent NRG (NC) or bivalent NRG (NN) (data representative of 2 independent experiments) (FIG. 9B). A possible mechanism for the observed differences in monovalent NRG compared to bivalent NN, in which NN fosters homodimerization or homo-oligomerization of HER3 at the expense of heterodimers with HER2, is illustrated in the schematic (FIG. 9A).
This hypothesis is further supported by the use of H3255 cells, which express high levels of the ErbB3 receptor and low levels of the ErbB4 receptor. Because the potential phenotypic effects associated with dimerization, oligomerization, and/or aggregation are more apparent with ErbB3 than ErbB4, this setting was chosen for proof-of-concept experiments.

Series [2] concerns the target T1, soluble crosslinked HER3 homodimers (ErbB3) (Homo sapiens, UniProt P21860).
T1 construct: exposed to soluble crosslinked HER3 homodimers (ErbB3)
Kind of series: Aggregation of soluble ErbB3 by dynamic light scattering. Type of series: binding. The note with it: various ligand:ErbB3 ratios, n=10. On the procedure:
FIG. 10. Specific binding of bivalent NN to HER3. Bivalent NN, monovalent NRG
(NC and NN), native NRG, or bivalent EN were exposed to soluble crosslinked HER3 homodimers (ErbB3) and hydrodynamic radius (RH) at various ligand:ErbB3 ratios. Receptor aggregation was determined by dynamic light scattering (n=10).

The conditions of series [3]: FDA label; cited from earlier work.
In another series the test system is infarcted hearts. The note with it: nanofiber delivery, n=7, from reference [10]; cited from earlier work.
Another series deals with HeLa cells. Kind of series: ERK phosphorylation in HeLa cells (EGF containing ligands). Type of series: cell-based. The note with it: inhibitor control. On the procedure:
(§1) FIG. 3. Bioactivity of engineered ligands. Stimulation of ERK phosphorylation by engineered EGF (C1, C2) and NRG (C3, C4) compared to native protein. Inhibition of phosphorylation was accomplished via a pan-ErbB kinase inhibitor N-(4-((3-Chloro-4-fluorophenyl)amino)-pyrido[3,4-d]pyrimidin-6-yl)2-butynamide (i), indicating specificity; FIG. 3A (HeLa), FIG. 3B (MCF-7).
(§2) Proteins are produced using a maltose binding protein (MBP) tagged system (pMAL-c2X, New England Biolabs). Proteins are analyzed by Coomassie staining, immunoblotting, mass spectrometry, absorbance at 280 nm, and in vitro cell response versus wild type ligands EGF and NRG. Specificity for ErbB receptor activation was further assessed by including inhibitor controls using the pan-ErbB kinase inhibitor N-(4-((3-Chloro-4-fluorophenyl)amino)-pyrido[3,4-d]pyrimidin-6-yl)-2-butynamide. Bioactivity and ErbB specificity were validated in HeLa and MCF-7 cells (for EGF and NRG containing ligands, respectively) (FIG. 3). HeLa cells express EGFR and ErbB2 and are responsive to EGF while MCF-7 cells express ErbB3 and ErbB4 and are responsive to NRG.

For another series, the system named is MCF-7 cells. The series can be described thus: ERK phosphorylation in MCF-7 cells (NRG containing ligands). The series is classed as cell-based. The note with it: inhibitor control. On the procedure: as §1, §2
In a further series the test system is HER3 and HER4 receptors. Kind of series: NRG relative affinity for HER3 and HER4 versus HER1. The series is classed as binding. The text has this:
Accordingly, in the context of cardiomyocytes, receptor signaling bias can be achieved, for example, through use of a ligand with high affinity for HER4/ErbB4. One such ligand is neuregulin-1β (NRG or NRG1, as used herein). To this end, the invention provides an NRG ligand homodimer. This homodimer induces HER4 homodimerization due to the high affinity of NRG for HER4/ErbB4. NRG binds HER3 and HER4 receptors with approximately 5000-fold greater affinity than HER1. ErbB3 is not expressed on cardiomyocytes however so exposure of these cells to an NRG dimer will stimulate the dimerization of HER4 homodimers without interference from HER3 receptors.

Series [4] deals with hTERT-immortalized human mesenchymal stem cells (hTMSC). The series can be described thus: ERK phosphorylation in hTMSC, western analysis with densitometry. Type of series: cell-based. On the procedure: FIG. 4. Cellular responses differ between native and bivalent NRG. (A) hTMSC were exposed to native (rhNRG), monovalent (C3, C4) and bivalent (NN) NRG in culture. ERK phosphorylation was measured via western analysis and quantified by densitometry.
Since NRG has high affinity for ErbB3 as well as ErbB4, and since ErbB3 is kinase-deficient, recruitment of ErbB3 homodimers via bivalent NRG should produce a null signaling outcome, whereas native or monovalent engineered NRG should be capable of stimulating ERK phosphorylation in these cells via ErbB2/ErbB3 mediated signaling.

For series [5], the system named is Neonatal rat cardiomyocytes (NRCM). The series can be described thus: Cardiomyocyte viability under doxorubicin, cell titer blue assay. Type of series: cell-based. The note with it: FIGS. 6 and 7; monomers compared with dimers. On the procedure: FIG. 5. Bivalent NRG attenuates doxorubicin-induced toxicity to cardiomyocytes in vitro. (A) Neonatal rat cardiomyocytes (NRCM) were simultaneously exposed to doxorubicin (1 μM) and either fibroblast growth factor-1 (FGF1, a known NRCM mitogen), native NRG (NRG), or bivalent NRG (NRG-NRG) at the indicated doses. […] (B) Bivalent NRG may preferentially activate the PI3K/Akt pro-survival signaling pathway.
FIG. 6 is a bar graph showing the effect of NRG monomers and NRG homodimers on cardiomyocyte viability in the presence of doxorubicin.
FIG. 7 is a bar graph showing the effect of NRG monomers, NRG homodimers, EGF-NRG heterodimers, and EGF and NRG monomers on cardiomyocyte viability in the presence of doxorubicin.
The activity of engineered ErbB receptor ligands has been verified in multiple cell systems. ErbB receptor profiles in cardiomyocytes are distinct. The efficacy of engineered bivalent ligands has been tested on cardiomyocytes in culture. Specifically, the effects of native and bivalent NRG on cardiomyocytes exposed to DOX-induced cytotoxicity were examined. […] If this effect of bivalent NRG is validated in vivo, it could have significant potential as a new cardioprotective agent against DOX-induced cardiomyopathy.
FIGS. 6 and 7 show similar results.
On the technique in general: The colour change of resazurin is a common sign of viable cells or microbes.

The next series has as its target ErbB4 (Homo sapiens, UniProt Q15303). As to conditions: NRG binding to ErbB4, reference [18]; cited from earlier work.
Another series deals with ErbB1 (Homo sapiens, UniProt P00533). As to conditions: NRG binding to ErbB1, reference [18]; cited from earlier work.

T1 sequence (P21860 20-643 limits assumed): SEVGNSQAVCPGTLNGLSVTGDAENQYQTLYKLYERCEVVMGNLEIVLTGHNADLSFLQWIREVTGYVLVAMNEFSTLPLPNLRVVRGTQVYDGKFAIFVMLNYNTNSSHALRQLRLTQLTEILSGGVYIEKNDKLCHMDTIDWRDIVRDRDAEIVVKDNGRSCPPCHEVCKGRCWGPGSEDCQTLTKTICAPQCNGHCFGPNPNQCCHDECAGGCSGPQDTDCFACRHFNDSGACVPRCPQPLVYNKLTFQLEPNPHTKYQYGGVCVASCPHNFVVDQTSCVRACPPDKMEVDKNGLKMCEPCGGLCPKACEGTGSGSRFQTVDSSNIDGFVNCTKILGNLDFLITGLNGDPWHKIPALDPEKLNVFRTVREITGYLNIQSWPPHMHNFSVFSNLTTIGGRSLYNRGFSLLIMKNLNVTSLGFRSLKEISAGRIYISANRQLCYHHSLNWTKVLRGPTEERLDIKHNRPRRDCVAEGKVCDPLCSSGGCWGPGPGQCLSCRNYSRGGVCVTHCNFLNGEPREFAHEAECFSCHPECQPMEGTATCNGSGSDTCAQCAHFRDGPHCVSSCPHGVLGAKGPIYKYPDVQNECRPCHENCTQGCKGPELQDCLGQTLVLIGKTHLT
Sequence of ErbB4 (Q15303 26-1308, species assumed): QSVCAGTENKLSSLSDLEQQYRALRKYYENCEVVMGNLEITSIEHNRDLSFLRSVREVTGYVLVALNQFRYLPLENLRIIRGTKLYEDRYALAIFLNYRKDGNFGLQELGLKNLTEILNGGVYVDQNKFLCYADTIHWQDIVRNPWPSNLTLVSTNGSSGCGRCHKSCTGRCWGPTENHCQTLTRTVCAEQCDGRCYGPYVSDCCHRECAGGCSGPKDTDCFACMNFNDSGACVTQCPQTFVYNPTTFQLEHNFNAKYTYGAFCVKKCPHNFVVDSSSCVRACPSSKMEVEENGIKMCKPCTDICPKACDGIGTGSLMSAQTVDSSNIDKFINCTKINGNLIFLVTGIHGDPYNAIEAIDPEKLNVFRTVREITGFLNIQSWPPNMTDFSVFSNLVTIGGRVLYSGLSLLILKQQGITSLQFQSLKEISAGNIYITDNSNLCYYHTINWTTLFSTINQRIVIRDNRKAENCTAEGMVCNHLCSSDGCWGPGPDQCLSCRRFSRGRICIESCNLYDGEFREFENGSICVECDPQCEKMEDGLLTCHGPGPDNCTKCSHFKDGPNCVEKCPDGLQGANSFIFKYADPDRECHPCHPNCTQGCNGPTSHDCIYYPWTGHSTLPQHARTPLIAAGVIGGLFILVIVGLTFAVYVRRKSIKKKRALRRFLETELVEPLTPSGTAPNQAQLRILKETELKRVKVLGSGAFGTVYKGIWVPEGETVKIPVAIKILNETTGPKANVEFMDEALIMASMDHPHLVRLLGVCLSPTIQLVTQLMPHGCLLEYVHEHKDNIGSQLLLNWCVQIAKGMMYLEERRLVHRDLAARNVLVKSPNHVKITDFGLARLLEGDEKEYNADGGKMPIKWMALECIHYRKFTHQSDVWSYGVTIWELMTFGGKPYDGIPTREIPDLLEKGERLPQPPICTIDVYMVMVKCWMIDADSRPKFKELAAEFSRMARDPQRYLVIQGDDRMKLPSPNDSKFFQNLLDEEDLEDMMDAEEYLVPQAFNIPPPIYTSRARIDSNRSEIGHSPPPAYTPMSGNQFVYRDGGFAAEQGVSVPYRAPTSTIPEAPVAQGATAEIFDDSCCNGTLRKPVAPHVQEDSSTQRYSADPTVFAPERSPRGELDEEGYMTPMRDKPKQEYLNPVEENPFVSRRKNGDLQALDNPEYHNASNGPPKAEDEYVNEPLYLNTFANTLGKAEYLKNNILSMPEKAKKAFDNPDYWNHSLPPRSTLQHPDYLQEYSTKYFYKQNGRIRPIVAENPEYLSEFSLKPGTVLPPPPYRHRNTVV

For “NC: Monovalent NRG used as comparator to bivalent NN”, the “phosphorylation of ErbB2 and ErbB3 receptors” value in series [1] is “stimulates phosphorylation”. The “aggregation of soluble ErbB3 receptors (hydrodynamic radius)” value in [2] is listed as “Only bivalent NN induced aggregation”.

On to `COc1cccc2c1C(=O)c1c(O)c3c(c(O)c1C2=O)C[C@@](O)(C(=O)CO)C[C@@H]3O[C@H]1C[C@H](N)[C@H](O)[C@H](C)O1` [doxorubicin], for which the “cumulative dose at which risk of developing impaired myocardial function increases” value in [3] is reported as “about 300 mg/m^2”.

“SDF-1(S4V): Protease resistant form of SDF-1, delivered via self-assembling peptide nanofibers”: the “capillary density (isolectin-positive staining)” value in the series with infarcted hearts is given as “increased capillary density”.

As to `CC#CC(=O)Nc1cc2c(Nc3ccc(F)c(Cl)c3)ncnc2cn1` [N-(4-((3-Chloro-4-fluorophenyl)amino)-pyrido[3,4-d]pyrimidin-6-yl)-2-butynamide], the “inhibition of ligand-induced pERK activation” value in the series on HeLa cells and with MCF-7 cells was “specifically inhibited” throughout.

neuregulin-1β [native NRG]: the “greater affinity for HER3 and HER4 than HER1” value in the series with HER3 and HER4 receptors is “approximately 5000 fold”. The “ERK phosphorylation (pERK response)” value in [4] is “dose-dependent increase in ERK phosphorylation”. Moreover, the “cardiomyocyte viability in the presence of doxorubicin” value in series [5] is “significantly (p<0.05) decreased”. Further, in series [2], the “aggregation of soluble ErbB3 receptors (hydrodynamic radius)” value was “Only bivalent NN induced aggregation”. The equilibrium dissociation constant (Kd) is around 0.0007 µM with ErbB4 and around 5.55 µM with ErbB1.
